Assays:
human plasma proteins = test: Human plasma protein binding assay (equilibrium dialysis); type: in vitro ADME; conditions: 1 μM, 2 hours, 37° C.
Method: Equilibrium dialysis (ED) technique was used to determine the approximate in vitro fractional binding of test compounds to plasma proteins. Dianorm Teflon dialysis cells (micro 0.2) were used. Each dialysis cell consists of a donor and an acceptor chamber, separated by an ultrathin semipermeable membrane with a 5 kDa molecular weight cut-off. Stock solutions for each test compound were prepared in DMSO at 1 mM and serially diluted to obtain a final test concentration of 1 μM. The subsequent dialysis solutions were prepared in plasma (supplemented with NaEDTA as anticoagulant), and aliquots of 200 μL test compound dialysis solution in plasma were dispensed into the donor (plasma) chambers. Aliquots of 200 μL dialysis buffer (100 mM potassium phosphate, pH 7.4) were dispensed into the buffer (acceptor) chamber. Incubation was carried out for 2 hours under rotation at 37° C. for establishing equilibrium.
At the end of the dialysis period, aliquots obtained from donor and acceptor chambers, respectively, were transferred into reaction tubes, spiked with Internal Standard solution and processed for HPLC-MS/MS analysis. Analyte concentrations were quantified in aliquots of samples by HPLC-MS/MS against external calibration curves.
Percent bound was calculated using the formula: % bound=(plasma concentration−buffer concentration/plasma concentration)×100

hERG channel = hERG channel (Homo sapiens (Human), UniProt Q12809); test: hERG channel assay (whole-cell patch clamp); type: cell-based; conditions: HEK293 cells stably transfected with hERG cDNA
hERG channel, sequence (Q12809 whole entry): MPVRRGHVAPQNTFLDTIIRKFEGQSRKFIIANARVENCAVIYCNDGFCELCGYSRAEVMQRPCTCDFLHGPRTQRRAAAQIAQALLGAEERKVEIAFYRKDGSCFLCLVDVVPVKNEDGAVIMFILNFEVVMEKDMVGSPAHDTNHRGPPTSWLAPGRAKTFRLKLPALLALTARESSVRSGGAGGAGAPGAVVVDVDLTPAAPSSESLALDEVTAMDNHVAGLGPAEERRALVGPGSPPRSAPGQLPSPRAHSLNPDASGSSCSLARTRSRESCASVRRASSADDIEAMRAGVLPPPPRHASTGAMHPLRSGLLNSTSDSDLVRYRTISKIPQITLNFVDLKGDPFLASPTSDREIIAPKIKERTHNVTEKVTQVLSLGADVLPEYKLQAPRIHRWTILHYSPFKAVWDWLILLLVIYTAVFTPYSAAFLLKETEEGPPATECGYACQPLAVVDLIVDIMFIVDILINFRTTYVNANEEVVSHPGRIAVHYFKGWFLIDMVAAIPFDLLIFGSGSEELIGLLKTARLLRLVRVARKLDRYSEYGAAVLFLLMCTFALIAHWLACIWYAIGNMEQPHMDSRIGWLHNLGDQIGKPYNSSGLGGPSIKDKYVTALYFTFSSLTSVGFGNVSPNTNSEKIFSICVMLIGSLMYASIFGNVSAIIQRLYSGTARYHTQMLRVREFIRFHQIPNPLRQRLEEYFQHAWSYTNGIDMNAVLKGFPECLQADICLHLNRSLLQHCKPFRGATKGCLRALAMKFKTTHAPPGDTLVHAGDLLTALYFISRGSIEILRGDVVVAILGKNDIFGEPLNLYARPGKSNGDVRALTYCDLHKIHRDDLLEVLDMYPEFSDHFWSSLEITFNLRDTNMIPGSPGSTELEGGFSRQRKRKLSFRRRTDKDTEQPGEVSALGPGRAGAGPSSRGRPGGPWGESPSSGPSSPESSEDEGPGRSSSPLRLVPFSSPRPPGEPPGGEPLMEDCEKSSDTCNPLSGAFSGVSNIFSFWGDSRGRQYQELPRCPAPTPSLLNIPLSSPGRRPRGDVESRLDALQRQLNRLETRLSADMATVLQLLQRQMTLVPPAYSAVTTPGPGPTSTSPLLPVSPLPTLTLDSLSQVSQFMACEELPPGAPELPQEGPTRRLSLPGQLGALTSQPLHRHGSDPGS
Excerpt: hERG Channel inhibition of compounds of the present invention was investigated as follows:
HEK (human embryonic kidney) 293 cells were stably transfected with hERG cDNA. Cells determined for use in patch clamp experiments were cultivated without antibiotic.
Cells were superfused with a bath solution containing (mM): NaCl (137), KCl (4.0), MgCl2 (1.0), CaCl2(1.8), Glucose (10), HEPES (10), pH 7.4 with NaOH. Patch pipettes were made from borosilicate glass tubing using a pipette and filled with pipette solution containing (mM): K-aspartate (130), MgCl2(5.0), EGTA (5.0), K2ATP (4.0), HEPES (10.0), pH 7.2 with KOH. Resistance of the microelectrodes was typically in the range between 2 MΩ and 5 MΩ.
Membrane currents were recorded using an EPC-10 patch clamp amplifier (HEKA Electronics, Lambrecht, FRG) and PatchMaster software (HEKA). hERG-mediated membrane currents were recorded at typically 28° C., using the whole-cell configuration of the patch-clamp technique. Transfected HEK293 cells were clamped at a holding potential of −60 mV and hERG-mediated inactivating tail currents were elicited using a pulse pattern with fixed amplitudes (activation/inactivation: 40 mV for 2000 ms; recovery: 120 mV for 2 ms; ramp to 40 mV in 2 ms; inactivating tail current: 40 mV for 50 ms) repeated at 15 s intervals. During each inter-pulse interval 4 pulses scaled down by a factor of 0.2 were recorded for a P/n leak subtraction procedure. Rs compensation was employed up to a level that safely allows recording devoid of ringing. The remaining uncompensated Rs was recorded as well as actual temperature and holding current.
The concentrations of the test item were applied sequentially on each of the different cells investigated. A steady state level of baseline current was measured for at least 5 sweeps prior to the application of the first test article concentration. The test item was dissolved in DMSO to yield a stock solution of 1000-fold the highest final concentration. This stock was diluted further in DMSO to stock solutions of 1000-fold the remaining final concentrations. Final dilutions in extracellular buffer were prepared freshly from these stocks by a 1:1000 dilution step each before starting the experiments.
Peak current amplitudes were measured 3 ms after the ramp to +40 mV. For baseline and each concentration, the peak currents of the three last sweeps before application of the next concentration were averaged. Residual currents (I/I0) were calculated for each cell as the fraction of actual average peak current and average baseline peak current. Current inhibition was expressed as […]. Current inhibition for all cells was reported as mean ±SD. If possible, from mean current inhibition data the IC50 was estimated based on the Hill equation using a least squares procedure.

human hepatocytes = test: Metabolic stability in human hepatocytes; type: in vitro ADME; conditions: human hepatocyte suspension, 1 μM; predicted hepatic clearance as percentage of hepatic blood flow
Method: The metabolic degradation of a test compound was assayed in a human hepatocyte suspension. After recovery from cryopreservation, human hepatocytes were diluted in Dulbecco's modified eagle medium (supplemented with 3.5 μg glucagon/500 mL, 2.5 mg insulin/500 mL, 3.75 mg hydrocortisone/500 mL, 5% human serum) to obtain a final cell density of 1.0×10^6 cells/mL or 4.0×10^6 cells/mL, depending on the metabolic turnover rate of the test compound.
Following a 30 minutes preincubation in a cell culture incubator (37° C., 10% CO2), test compound solution was spiked into the hepatocyte suspension, resulting in a final test compound concentration of 1 μM and a final DMSO concentration of 0.05% (v/v).
The cell suspension was incubated at 37° C. (cell culture incubator, horizontal shaker) and samples were removed from the incubation after 0, 0.5, 1, 2, 4 and 6 hours. Samples were quenched with acetonitrile (containing internal standard) and pelleted by centrifugation. The supernatant was transferred to a 96-deepwell plate, and prepared for analysis of decline of parent compound by HPLC-MS/MS.
The percentage of remaining test compound was calculated using the peak area ratio (test compound/internal standard) of each incubation time point relative to the time point 0 peak area ratio. The log-transformed data were plotted versus incubation time, and the absolute value of the slope obtained by linear regression analysis was used to estimate in vitro half-life (T1/2).
In vitro intrinsic clearance (CLint) was calculated from in vitro T1/2 and scaled to whole liver using a hepatocellularity of 120×10^6 cells/g liver, a human liver per body weight of 25.7 g liver/kg as well as in vitro incubation parameters, applying the following equation: CL_[…]_IN VIVO[mL/min/kg]=(CL_[…][μL/min/10^6 cells]×hepatocellularity[10^6 cells/g liver]×liver factor[g/kg body weight])/1000
Hepatic in vivo blood clearance (CL) was predicted according to the well-stirred liver model considering an average liver blood flow (QH) of 20.7 mL/min/kg: CL[mL/min/kg]=CL_[…]_IN VIVO[mL/min/kg]×hepatic blood flow[mL/min/kg]/(CL_[…]_IN VIVO[mL/min/kg]+hepatic blood flow[mL/min/kg])
Results were expressed as percentage of hepatic blood flow: QH[%]=CL[mL/min/kg]/hepatic blood flow[mL/min/kg])

[1] = system: primary human hepatocytes; test: In vitro metabolite profiling in primary human hepatocytes with or without proadifen; type: in vitro ADME; conditions: for % Parent of drug-related material: incubations in primary human hepatocytes, 1 μM test compound; for Contribution of amide hydrolysis to metabolism (incl. secondary metabolites): primary human hepatocytes, abundance of deacetylated metabolites relative to all metabolites
Method: In vitro metabolite profiling to evaluate the involvement of non-CYP-enzyme-mediated metabolic pathways such as hydrolysis in addition to CYP-mediated pathways is based on the semiquantitative analysis of the formation of prototypic metabolites in incubations with liver microsomes (with and without beta-nicotinamide adenine dinucleotide phosphate, NADPH), primary human hepatocytes (with and without the pan-CYP inhibitor proadifen) and recombinant CYP enzymes.
An additional measure to identify CYP-independent metabolic pathways is the use of the pan-CYP inhibitor proadifen in incubations of the test compound with human hepatocytes. In presence of proadifen, the CYP-related pathways are inhibited and metabolites would primarily be generated via non-CYP pathways.
The involvement of non-CYP-enzymes in metabolic transformations of the test compound was further investigated using primary human hepatocytes in suspension in presence or absence of the pan-CYP inhibitor proadifen (50 μM final incubation concentration). After recovery from cryopreservation, human hepatocytes were incubated in Dulbecco's modified eagle medium supplemented with 3.5 μg glucagon/500 ml, 2.5 mg insulin/500 ml and 3.75 mg/500 ml hydrocortisone containing 5% (v/v) human serum.
Following a 30 min preincubation in a cell culture incubator (37° C., 10% CO2) with or without 50 μM proadifen, test compound solution was spiked into the hepatocyte suspension to obtain a final cell density of 1.0*10^6 to 4.0*10^6 cells/ml (depending on the metabolic turnover rate of the compound observed with primary human hepatocytes), a final test compound concentration of 1 μM, and a final DMSO concentration of 0.05% (v/v).
The cells were incubated for six hours (incubator, horizontal shaker) and samples were removed from the incubation after 0, 0.5, 1, 2, 4 or 6 hours, depending on the metabolic turnover rate. Samples were quenched with acetonitrile and pelleted by centrifugation. The supernatant was transferred to a 96-deepwell plate, evaporated under nitrogen, and resuspended prior to bioanalysis by liquid chromatography-high resolution mass spectrometry for identification of putative metabolites.
The contribution of hydrolysis was calculated based on the abundance of the respective deacetylated metabolite(s) of the compounds of the present invention relative to all metabolites observed in incubations with human hepatocytes.

Row | SMILES | Hu PPB (human plasma proteins) [% bound] | IC50 (hERG channel) [µM] | Human HepStab (human hepatocytes) [% QH] | % Parent of drug-related material [1] [%] | Contribution of amide hydrolysis to metabolism (incl. secondary metabolites) [1] [%]
1 | CC(=O)N1C[C@H](NC(=O)c2nccnc2N2CC(Oc3ccc(F)c(F)c3)C2)C(F)(F)C1 [Example 8b] | 79.7 | > 10 | 9.2 | 84 | 19
2 | CC(=O)N1C[C@H](NC(=O)c2nsnc2N2CC(Oc3ccc(F)c(F)c3)C2)C(F)(F)C1 [Example 13b] | 92.8 | > 10 | <4.1 | 70 | 25
